The target in data set [1] is T1, AChE (from electrophorus electricus) (Electrophorus electricus, UniProt O42275).
T1 construct: purchased Sigma-Aldrich C3389
The data set can be described thus: In vitro AChE inhibition, Ellman's colorimetric method. The class given is biochemical. For orientation: DTNB colorimetry detects thiols as they appear.

Data set [2] deals with T2, BACE1 (from equine serum) (Homo sapiens, UniProt P56817).
T2 construct: purchased Sigma-Aldrich CS0010
Description: In vitro BACE1 inhibition, FRET assay. The class given is biochemical.

In data set [3] the test system is BACE1. Conditions: Iraji et al.; cited from earlier work.
Data set [4] concerns BACE1. Conditions: Yazdani et al.; cited from earlier work.
Data set [5] concerns AChE. Conditions: Jameel et al.; read-out: AChE inhibition IC50; cited from earlier work.
In data set [6] the test system is BACE-1. Particulars: in vitro; cited from earlier work.
The subject of data set [7] is GSK-3β. Particulars: in vitro; cited from earlier work.
The conditions of data set [8]: cell-based assays; cited from earlier work.
The mark [9] stands for this setting: mean ± SD of three independent experiments, read-out: BACE1 IC50.

Like-named read-outs stand apart in the source and are kept apart here.

T1 sequence (O42275 24-633): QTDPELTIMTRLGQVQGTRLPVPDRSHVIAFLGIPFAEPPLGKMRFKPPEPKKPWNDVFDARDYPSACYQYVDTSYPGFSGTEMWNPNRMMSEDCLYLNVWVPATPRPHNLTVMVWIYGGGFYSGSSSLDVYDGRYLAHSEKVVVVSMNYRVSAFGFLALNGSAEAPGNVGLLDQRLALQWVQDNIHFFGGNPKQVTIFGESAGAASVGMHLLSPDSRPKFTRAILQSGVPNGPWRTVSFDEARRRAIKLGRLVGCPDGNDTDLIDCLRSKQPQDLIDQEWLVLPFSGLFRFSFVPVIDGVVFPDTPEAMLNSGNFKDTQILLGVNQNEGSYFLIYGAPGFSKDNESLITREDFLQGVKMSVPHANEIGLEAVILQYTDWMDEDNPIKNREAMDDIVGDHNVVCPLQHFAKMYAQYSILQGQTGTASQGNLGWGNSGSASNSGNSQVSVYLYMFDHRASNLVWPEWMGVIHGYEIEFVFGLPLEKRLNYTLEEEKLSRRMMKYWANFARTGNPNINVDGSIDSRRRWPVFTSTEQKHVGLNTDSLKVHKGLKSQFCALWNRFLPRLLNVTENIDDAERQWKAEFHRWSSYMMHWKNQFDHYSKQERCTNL
T2 sequence (P56817 46-457 limits assumed): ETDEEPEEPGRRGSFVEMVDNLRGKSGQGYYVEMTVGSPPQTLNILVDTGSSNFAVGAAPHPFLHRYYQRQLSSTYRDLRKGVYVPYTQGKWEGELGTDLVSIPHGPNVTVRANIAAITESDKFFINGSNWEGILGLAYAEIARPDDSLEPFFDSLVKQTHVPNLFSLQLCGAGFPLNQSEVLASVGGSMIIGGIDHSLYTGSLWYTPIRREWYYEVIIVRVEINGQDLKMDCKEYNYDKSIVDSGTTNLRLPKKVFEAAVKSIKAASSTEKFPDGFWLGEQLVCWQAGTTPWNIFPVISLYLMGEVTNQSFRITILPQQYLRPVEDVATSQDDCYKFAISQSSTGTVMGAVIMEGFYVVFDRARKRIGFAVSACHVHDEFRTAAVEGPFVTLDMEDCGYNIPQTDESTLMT

In the case of `COC(=O)C(C)NC(=O)C(Cc1cn(S(=O)(=O)c2ccc(C)cc2)cn1)Nc1nc(OC)nc(N2CCN(CCCl)CC2)n1` (stereo not drawn) [4h, 2-[4-(2-Chloroethyl)Piperazin-1-yl]-4-Methoxy-6-(NH-His(Ts)-Ala-OMe)-1,3,5-Triazine], the half-maximal inhibitory concentration (IC50) (as a rule, the concentration needed to halve the response being measured) in data set [1] (read-out: AChE IC50, AChE from electric eel, Ellman's method, mean ± SD of three independent experiments) was 0.067 ± 0.003 µM; in data set [2] (read-out: BACE1 IC50, mean ± SD of three independent experiments), 14.2 ± 3.45 µM. In the case of `COC(=O)C(C)NC(=O)C(Cc1c[nH]c2ccccc12)Nc1nc(OC)nc(N2CCN(CCCl)CC2)n1` (stereo not drawn) [4g, 2-[4-(2-Chloroethyl)Piperazin-1-yl]-4-Methoxy-6-(NH-Trp-Ala-OMe)- 1,3,5- Triazine], the half-inhibitory concentration (IC50) in data set [1] amounted to 0.122 ± 0.014 µM; in data set [2] (setting [9]), 28.1 ± 3.69 µM. As to `Oc1ccc(/C=N/Nc2nnc(-c3cccs3)c(-c3cccs3)n2)c(O)c1` [H], in data set [3], the IC50 was 0.91 µM. For the compound `COC(=O)C(C)NC(=O)C(CCCCNC(=O)OC(C)(C)C)Nc1nc(OC)nc(N2CCN(CCCl)CC2)n1` (stereo not drawn) [4a, 2-[4-(2-Chloroethyl)Piperazin-1-yl]-4-Methoxy-6-(NH-Lys(Boc)-Ala -OMe)-1,3,5-Triazine], the half-maximal inhibitory concentration (IC50) stood at 0.055 ± 0.001 µM in data set [1] and 11.1 ± 2.29 µM in data set [2] (setting [9]). Turning to `O=[N+]([O-])c1ccc(Cn2cc(COc3ccc(/C=N/Nc4nnc(-c5ccccc5)c(-c5ccccc5)n4)cc3)nn2)cc1` [G], the IC50 in data set [4] was 11.4 ± 2.01 µM. As to `Clc1ccc(Cn2cc(COc3ccc(/C=N/Nc4nnc(-c5ccccc5)c(-c5ccccc5)n4)cc3)nn2)cc1` [F], in data set [4], the 50% inhibitory concentration (IC50) is 8.55 ± 3.37 µM. `COc1ccc(Nc2nc(Cl)nc(N3CCN(c4cc(C)nc5ccnn45)CC3)n2)cc1` [D]: the IC50 in data set [5] was 0.092 µM.

Regarding `Cc1cccc(Nc2nc(Cl)nc(N3CCN(c4cc(C)nc5ccnn45)CC3)n2)c1` [C], the 50% inhibitory concentration (IC50) in data set [5] was 0.065 µM. As for `COC(=O)C(C)NC(=O)C(CCCNC(=N)N[N+](=O)[O-])Nc1nc(OC)nc(N2CCN(CCCl)CC2)n1` (stereo not drawn) [4f, 2-[4-(2-Chloroethyl)Piperazin-1-yl]-4-Methoxy-6-(NH-Arg(NO2)-Ala-OMe) -1,3,5-Triazine], the concentration for half-maximal inhibition (IC50) turned out to be 1.44 ± 0.029 µM in data set [1] and 52 ± 8.55 µM in data set [2] (setting [9]). The corresponding values for `COC(=O)C(C)NC(=O)C(COCc1ccccc1)Nc1nc(OC)nc(N2CCN(CCCl)CC2)n1` (stereo not drawn) [4d, 2-[4-(2-Chloroethyl)Piperazin-1-yl]-4-Methoxy-6-(NH-Ser (Bn)-Ala -OMe) -1,3,5-Triazine] are 0.387 ± 0.054 µM and 58.1 ± 9.69 µM. Turning to `COC(=O)C(C)NC(=O)C(Cc1cn(C(=O)OC(C)(C)C)c2ccccc12)Nc1nc(OC)nc(N2CCN(CCCl)CC2)n1` (stereo not drawn) [4c, 2-[4-(2-Chloroethyl)Piperazin-1-yl]-4-Methoxy-6-(NH-Trp(Boc)-Ala-OMe)-1,3,5-Triazine], the IC50 in data set [1] is 0.114 ± 0.012 µM; in data set [2] (setting [9]), 18.1 ± 2.69 µM. Consider `ClCCN1CCN(c2nc(Nc3ccccc3)nc(N3CCN(CCCl)CC3)n2)CC1` [A], for which the IC50 in data set [1] worked out at 0.051 ± 0.001 µM; in data set [2] (setting [9]) it was 9 ± 0.22 µM. Turning to `COC(=O)C(C)NC(=O)C(CC(=O)OC(C)(C)C)Nc1nc(OC)nc(N2CCN(CCCl)CC2)n1` (stereo not drawn) [4b, 2-[4-(2-Chloroethyl)Piperazin-1-yl]-4-Methoxy-6-(NH-Asp(OtBu)-Ala-OMe)-1,3,5-Triazine], the results for the half-maximal inhibitory concentration (IC50) in data set [1] and in data set [2] (setting [9]) were 0.065 ± 0.002 µM and 33.8 ± 3.91 µM, respectively. Take `NC1=NC(c2ccc(F)cc2)NC(=O)N1` (stereo not drawn) [E]: the half-maximal inhibitory concentration (IC50) in data set [6] is 18.03 ± 0.01 µM; in data set [7], 14.7 ± 0.78 µM. Also, the “neuroprotective and neurogenic activities” value in data set [8] is “effective”. Moreover, in data set [8], the neurotoxicity entry was “no neurotoxicity”. `COC(=O)C(C)NC(=O)C(C)(C)Nc1nc(OC)nc(N2CCN(CCCl)CC2)n1` (stereo not drawn) [4e, 2-[4-(2-Chloroethyl)Piperazin-1-yl]-4-Methoxy-6-(NH-Aib-Ala-OMe) -1,3,5 -Triazine]: the figures for the IC50 in data set [1] and in data set [2] (setting [9]) were 0.789 ± 0.031 µM and 51 ± 7.99 µM, respectively.

(Values after article PMC8271926, “1,3,5-Triazine Nitrogen Mustards with Different Peptide Group as Innovative Candidates for AChE and BACE1 Inhibitors” (Molecules, 2021).)
